Data as given in ChEMBL document CHEMBL1158532, “A novel kavalactone derivative protects against H2O2-induced PC12 cell death via Nrf2/ARE activation” (Bioorg Med Chem, 2010).
Active and inactive are the calls of the source. The calls are words filed in the database; no cut-off is given here.

Columns and labels:
PC-12 [1] = assay: Increase in HO-1 protein expression in rat PC12 cells at 10 uM treated 24 hrs before H202 challenge measured after 24 hrs by Western blot analysis; assay type: functional, cell-based
[2] = biological target: T1, Nuclear factor erythroid 2-related factor 2 (Rattus norvegicus) (UniProt O54968); assay: Activation of Nrf2 in rat PC12 cells at 10 uM after 24 hrs by antioxidant response element-driven luciferase reporter gene assay relative to yangonin; assay type: functional, cell-based; settings: PC-12
T1 sequence (whole entry): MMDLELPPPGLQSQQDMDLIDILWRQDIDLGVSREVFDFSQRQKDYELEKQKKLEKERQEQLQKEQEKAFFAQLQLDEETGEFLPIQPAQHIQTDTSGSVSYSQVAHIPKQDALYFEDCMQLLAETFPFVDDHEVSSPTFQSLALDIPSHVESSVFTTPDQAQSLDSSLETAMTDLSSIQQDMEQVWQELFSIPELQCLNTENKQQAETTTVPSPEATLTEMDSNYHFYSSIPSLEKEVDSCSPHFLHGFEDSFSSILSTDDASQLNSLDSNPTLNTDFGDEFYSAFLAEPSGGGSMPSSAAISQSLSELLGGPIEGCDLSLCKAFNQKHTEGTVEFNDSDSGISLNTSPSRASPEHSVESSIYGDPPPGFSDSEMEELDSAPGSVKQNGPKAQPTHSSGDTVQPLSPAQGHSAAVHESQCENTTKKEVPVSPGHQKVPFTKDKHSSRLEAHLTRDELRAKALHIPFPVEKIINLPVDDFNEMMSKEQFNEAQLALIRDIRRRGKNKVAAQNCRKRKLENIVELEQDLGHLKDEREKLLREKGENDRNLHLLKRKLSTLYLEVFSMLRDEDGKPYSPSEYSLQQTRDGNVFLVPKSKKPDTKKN

[3] = biological target: T1, Nuclear factor erythroid 2-related factor 2 (Rattus norvegicus); assay: Activation of Nrf2 in rat PC12 cells at 10 uM after 24 hrs by antioxidant response element-driven luciferase reporter gene assay relative to kawain; assay type: functional, cell-based; settings: PC-12
[4] = biological target: T1, Nuclear factor erythroid 2-related factor 2 (Rattus norvegicus); assay: Activation of Nrf2 in rat PC12 cells at 10 uM after 24 hrs by antioxidant response element-driven luciferase reporter gene assay relative to methysticin; assay type: functional, cell-based; settings: PC-12
PC-12 [5] = assay: Induction of HO-1 protein expression in rat PC12 cells at 10 uM after 24 hrs by Western blot analysis relative to yangonin; assay type: functional
PC-12 [6] = assay: Induction of HO-1 protein expression in rat PC12 cells at 10 uM after 24 hrs by Western blot analysis relative to kawain; assay type: functional
PC-12 [7] = assay: Induction of HO-1 protein expression in rat PC12 cells at 10 uM after 24 hrs by Western blot analysis relative to methysticin; assay type: functional
PC-12 [8] = assay: Cytotoxicity against rat PC12 cells at 100 uM after 24 hrs by WST8 assay; assay type: cell-based; settings: pc-12, 24 h
PC-12 [9] = assay: Cytotoxicity against rat PC12 cells assessed as effect on cellular morphology at 50 to 100 uM after 24 hrs by WST8 assay; assay type: cell-based; settings: pc-12, 24 h
[10] = biological target: T1, Nuclear factor erythroid 2-related factor 2 (Rattus norvegicus); assay: Activation of Nrf2 in rat PC12 cells after 24 hrs by antioxidant response element-driven luciferase reporter gene assay relative to yangonin; assay type: functional, cell-based; settings: PC-12
PC-12 [11] = assay: Increase in HO-1 protein expression in rat PC12 cells at 10 uM after 3 hrs by Western blot analysis; assay type: functional, cell-based
PC-12 [12] = assay: Induction of gamma-GCSc catalytic subunit protein expression in rat PC12 cells at 10 uM after 12 hrs by Western blot analysis; assay type: functional, cell-based
PC-12 [13] = assay: Increase in NQO1 protein expression in rat PC12 cells at 10 uM after 3 hrs by Western blot analysis; assay type: functional, cell-based
PC-12 [14] = assay: Induction of HO-1 protein expression in rat PC12 cells at 10 uM after 24 hrs by Western blot analysis relative to control; assay type: functional
PC-12 [15] = assay: Induction of gamma-GCSc catalytic subunit protein expression in rat PC12 cells at 10 uM after 24 hrs by Western blot analysis relative to control; assay type: functional
PC-12 [16] = assay: Induction of NQO1 protein expression in rat PC12 cells at 10 uM after 24 hrs by Western blot analysis relative to control; assay type: functional
[17] = biological target: T1, Nuclear factor erythroid 2-related factor 2 (Rattus norvegicus); assay: Activation of Nrf2 in rat PC12 cells assessed as induction of translocation into nucleus at 10 uM after 30 mins by Western blot analysis; assay type: functional, cell-based; settings: PC-12
[18] = biological target: T1, Nuclear factor erythroid 2-related factor 2 (Rattus norvegicus); assay: Activation of Nrf2 in rat PC12 cells assessed as induction of translocation into nucleus at 10 uM after 24 hrs by Western blot analysis; assay type: functional, cell-based; settings: PC-12
[19] = biological target: T2, Mitogen-activated protein kinase 1 and 3 (ERK2 and ERK1) (Rattus norvegicus) (UniProt P63086+P21708); assay: Increase in Erk1/2 phosphorylation in rat PC12 cells at 10 uM after 5 mins by Western blot analysis; assay type: cell-based; settings: PC-12
[20] = biological target: T2, Mitogen-activated protein kinase 1 and 3 (ERK2 and ERK1) (Rattus norvegicus); assay: Increase in Erk1/2 phosphorylation in rat PC12 cells at 10 uM after 6 hrs by Western blot analysis; assay type: cell-based; settings: PC-12
PC-12 [21] = assay: Increase in p38 phosphorylation in rat PC12 cells at 10 uM after 5 mins by Western blot analysis; assay type: cell-based
[22] = biological target: RAC-alpha serine/threonine-protein kinase (Rattus norvegicus) (UniProt P47196); assay: Increase in Akt phosphorylation in rat PC12 cells at 10 uM after 24 hrs by Western blot analysis; assay type: cell-based; settings: PC-12
PC-12 [23] = assay: Induction of HO-1 protein expression in rat PC12 cells at 10 uM after 3 hrs by Western blot analysis in presence of 20 uM MEK1/2 inhibitor PD-98059; assay type: functional, cell-based
PC-12 [24] = assay: Induction of HO-1 protein expression in rat PC12 cells at 10 uM after 3 hrs by Western blot analysis in presence of 5 uM p38 inhibitor SB-203580; assay type: functional, cell-based
PC-12 [25] = assay: Induction of Nrf2 release in rat PC12 cells assessed as increase in intracellular ROS level at 10 uM after 1 hr by CM-H2-DCFDA staining-based fluorescence assay; assay type: functional, cell-based
PC-12 [26] = assay: Induction of Nrf2 release in rat PC12 cells assessed as increase in intracellular ROS level at 10 uM after 3 hrs by CM-H2-DCFDA staining-based fluorescence assay; assay type: functional, cell-based
PC-12 [27] = assay: Induction of HO-1 protein expression in rat PC12 cells at 10 uM after 3 hrs by Western blot analysis in presence of 2.5 […] N-acetyl-cysteine; assay type: functional, cell-based
PC-12 [28] = assay: Neuroprotective activity against H202-induced rat PC12 cell death at 10 uM treated 24 hrs before H202 challenge measured after 24 hrs by WST8 assay; assay type: functional, cell-based
[29] = biological target: T1, Nuclear factor erythroid 2-related factor 2 (Rattus norvegicus); assay: Activation of Nrf2 in rat PC12 cells at 10 uM after 24 hrs by antioxidant response element-driven luciferase reporter gene assay; assay type: functional, cell-based; settings: PC-12
PC-12 [30] = assay: Induction of HO-1 protein expression in rat PC12 cells at 10 uM after 24 hrs by Western blot analysis; assay type: functional, cell-based

T2 sequence (P21708 whole entry, looked up): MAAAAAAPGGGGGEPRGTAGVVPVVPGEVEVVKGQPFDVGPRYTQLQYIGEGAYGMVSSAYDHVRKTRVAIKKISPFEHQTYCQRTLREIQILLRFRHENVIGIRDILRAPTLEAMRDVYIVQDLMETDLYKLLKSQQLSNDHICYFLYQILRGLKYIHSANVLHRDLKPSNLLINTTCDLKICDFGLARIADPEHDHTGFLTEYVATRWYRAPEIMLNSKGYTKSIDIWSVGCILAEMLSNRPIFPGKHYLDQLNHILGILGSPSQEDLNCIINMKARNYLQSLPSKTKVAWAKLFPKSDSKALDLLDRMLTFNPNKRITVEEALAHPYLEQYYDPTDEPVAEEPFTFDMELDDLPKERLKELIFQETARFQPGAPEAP
T2 sequence (P63086 whole entry, looked up): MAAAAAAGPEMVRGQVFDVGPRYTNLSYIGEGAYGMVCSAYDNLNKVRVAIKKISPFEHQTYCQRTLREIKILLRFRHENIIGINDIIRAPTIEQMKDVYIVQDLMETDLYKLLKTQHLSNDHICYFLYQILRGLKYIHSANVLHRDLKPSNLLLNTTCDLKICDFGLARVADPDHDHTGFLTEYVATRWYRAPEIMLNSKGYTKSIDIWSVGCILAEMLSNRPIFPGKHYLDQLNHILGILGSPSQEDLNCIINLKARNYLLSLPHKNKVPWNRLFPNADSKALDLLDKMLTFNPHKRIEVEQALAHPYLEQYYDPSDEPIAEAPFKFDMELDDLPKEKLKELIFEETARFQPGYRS
Sequence of RAC-alpha serine/threonine-protein kinase (Rattus norvegicus) (P47196 whole entry): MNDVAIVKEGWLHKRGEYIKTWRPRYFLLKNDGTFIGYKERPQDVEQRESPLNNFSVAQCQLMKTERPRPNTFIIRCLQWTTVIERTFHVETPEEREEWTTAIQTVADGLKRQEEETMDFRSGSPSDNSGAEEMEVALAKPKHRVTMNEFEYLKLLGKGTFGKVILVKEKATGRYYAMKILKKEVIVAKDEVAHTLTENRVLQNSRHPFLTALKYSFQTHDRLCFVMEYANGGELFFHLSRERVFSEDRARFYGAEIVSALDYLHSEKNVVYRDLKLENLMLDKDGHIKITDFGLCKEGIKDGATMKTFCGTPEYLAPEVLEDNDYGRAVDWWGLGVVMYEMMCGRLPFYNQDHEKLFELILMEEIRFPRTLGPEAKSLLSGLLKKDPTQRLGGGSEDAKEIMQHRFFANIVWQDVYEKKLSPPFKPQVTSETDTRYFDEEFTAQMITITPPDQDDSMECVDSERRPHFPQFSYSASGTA

COCc1c(OC)cc(=O)oc1/C=C/c1c(Cl)cccc1Cl
Activity (PC-12 [1]): Active
fold change (FC) [2]: 2
fold change (FC) [3]: 2
fold change (FC) [4]: 2
fold change (FC) (PC-12 [5]): 3
fold change (FC) (PC-12 [6]): 3
fold change (FC) (PC-12 [7]): 3
Activity (PC-12 [8]): Non-toxic
Activity (PC-12 [9]): Toxic
Activity [10]: Dose-dependent effect
Activity (PC-12 [11]): Active
Activity (PC-12 [12]): Active
Activity (PC-12 [13]): Active
fold change (FC) (PC-12 [14]): 2
fold change (FC) (PC-12 [15]): 2
fold change (FC) (PC-12 [16]): 1.3
Activity [17]: Active
Activity [18]: Active
Activity [19]: Active
Activity [20]: inactive
Activity (PC-12 [21]): Active
Activity [22]: inactive
Activity (PC-12 [23]): inactive
Activity (PC-12 [24]): inactive
Activity (PC-12 [25]): Active
Activity (PC-12 [26]): inactive
Activity (PC-12 [27]): inactive
Activity (PC-12 [28]): Active

COC1=CC(=O)O[C@@H](/C=C/c2ccc3c(c2)OCO3)C1
Activity [29]: Active
Activity (PC-12 [30]): Active

COc1ccc(/C=C/c2cc(OC)cc(=O)o2)cc1
Activity [29]: Active
Activity (PC-12 [30]): Active

COC1=CC(=O)O[C@@H](/C=C/c2ccccc2)C1
Activity [29]: Active
Activity (PC-12 [30]): Active
